Earlier results as cited in patent US20050123607A1, “Pharmaceutical formulation of valaciclovir” (priority 2003, published 2005).

Legend:
[1] = especially in its salt form
[2] = oral administration

## CC(C)[C@H](N)C(=O)OCCOCn1cnc2c(=O)[nH]c(N)nc21 [valaciclovir]
[1]
  solubility (in words): very soluble
[2]
  absorption from the gastrointestinal tract / bioavailability (in words): much improved bioavailability
